Laboratory results taken from ChEMBL document CHEMBL1201862, “PubChem BioAssay data set” (2004).
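1) Cells in 96-well plates. 2) Compound, 48 h, 5 concentrations. 3) Linear interpolation between surrounding doses. 4) Unreached endpoint = highest concentration. At the GI50, growth is halved.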 Activity calls are given as the source filed them. Rule as the data show it: active = GI50 up to about 1.1 µM and inactive = higher.

Tests used:
Experiment in all cases: inhibition of tumour cell growth, NCI panel, 48 h
[1] = test system: NCI-H460
[2] = test system: TK-10
[3] = test system: RXF 393
[4] = test system: UACC-62
[5] = test system: UO-31
[6] = test system: KM12
[7] = test system: EKVX
[8] = test system: M14
[9] = test system: SK-OV-3
[10] = test system: BT-549
[11] = test system: 786-0
[12] = test system: NCI-H226
[13] = test system: U-251
[14] = test system: HCC 2998
[15] = test system: Malme-3M
[16] = test system: MDA-MB-435
[17] = test system: MCF7
[18] = test system: OVCAR-4
[19] = test system: COLO 205
[20] = test system: PC-3
[21] = test system: OVCAR-5
[22] = test system: HCT-116
[23] = test system: OVCAR-8
[24] = test system: NCI/ADR-RES
[25] = test system: A549
[26] = test system: SF-539
[27] = test system: MDA-MB-231
[28] = test system: SR
[29] = test system: CAKI-1
[30] = test system: MDA-N
[31] = test system: SK-MEL-2
[32] = test system: DU-145
[33] = test system: IGROV-1
[34] = test system: HL-60
[35] = test system: SN12C
[36] = test system: HOP-62
[37] = test system: Hs-578T
[38] = test system: CCRF-CEM
[39] = test system: SK-MEL-5
[40] = test system: T47D
[41] = test system: SF-295
[42] = test system: NCI-H522
[43] = test system: UACC-257
[44] = test system: MOLT-4
[45] = test system: ACHN
[46] = test system: OVCAR-3
[47] = test system: K562
[48] = test system: HCT-15
[49] = test system: HT-29
[50] = test system: A498
[51] = test system: NCI-H23
[52] = test system: SF-268
[53] = test system: RPMI-8226
[54] = test system: SNB-75
[55] = test system: SNB-19
[56] = test system: SW-620
[57] = test system: SK-MEL-28
[58] = test system: LOX IMVI

SMILES: Cc1cc(N(CCC#N)CCC#N)ccc1C(/N=N/c1ccccc1)=N\NC(=O)c1cc(Cl)ccc1O
- GI50 [1]: 24.5 µM (inactive)
- GI50 [2]: 14.9 µM (inactive)
- GI50 [3]: 23.3 µM (inactive)
- GI50 [4]: 7.71 µM (inactive)
- GI50 [5]: 14.8 µM (inactive)
- GI50 [6]: 26.1 µM (inactive)
- GI50 [7]: 30.5 µM (inactive)
- GI50 [8]: 26.4 µM (inactive)
- GI50 [9]: 71.4 µM (inactive)
- GI50 [10]: 18.2 µM (inactive)
- GI50 [11]: 23.9 µM (inactive)
- GI50 [12]: 20.5 µM (inactive)
- GI50 [13]: 33.1 µM (inactive)
- GI50 [14]: 15.8 µM (inactive)
- GI50 [15]: 27.9 µM (inactive)
- GI50 [16]: 36.4 µM (inactive)
- GI50 [17]: 11.7 µM (inactive)
- GI50 [18]: 20.7 µM (inactive)
- GI50 [19]: 19.7 µM (inactive)
- GI50 [20]: 23.5 µM (inactive)
- GI50 [21]: > 10 µM (inactive)
- GI50 [22]: 15.7 µM (inactive)
- GI50 [23]: 21.5 µM (inactive)
- GI50 [24]: 20.1 µM (inactive)
- GI50 [25]: 29.4 µM (inactive)
- GI50 [26]: 20.5 µM (inactive)
- GI50 [27]: 27.1 µM (inactive)
- GI50 [28]: 13.5 µM (inactive)
- GI50 [29]: 46.8 µM (inactive)
- GI50 [30]: 32.6 µM (inactive)
- GI50 [31]: 32.4 µM (inactive)
- GI50 [32]: 27.5 µM (inactive)
- GI50 [33]: 26.2 µM (inactive)
- GI50 [34]: 37.9 µM (inactive)
- GI50 [35]: 26.5 µM (inactive)
- GI50 [36]: 41.8 µM (inactive)
- GI50 [37]: 23.8 µM (inactive)
- GI50 [38]: 16.6 µM (inactive)
- GI50 [39]: 21.5 µM (inactive)
- GI50 [40]: 11.4 µM (inactive)
- GI50 [41]: 18.5 µM (inactive)
- GI50 [42]: 13.6 µM (inactive)
- GI50 [43]: 18.6 µM (inactive)
- GI50 [44]: 39 µM (inactive)
- GI50 [45]: 15.8 µM (inactive)
- GI50 [46]: 18 µM (inactive)
- GI50 [47]: 22.4 µM (inactive)
- GI50 [48]: 18.4 µM
- GI50 [49]: 15.5 µM (inactive)
- GI50 [50]: 59.2 µM (inactive)
- GI50 [51]: 13.1 µM (inactive)
- GI50 [52]: 30.1 µM (inactive)
- GI50 [53]: 64.7 µM (inactive)
- GI50 [54]: 77.6 µM (inactive)
- GI50 [55]: 49 µM (inactive)

SMILES: CC1(C)CCCCC1/C=C/C(CC(O)(C(F)(F)F)C(F)(F)F)=N\Nc1ccc([N+](=O)[O-])cc1[N+](=O)[O-] (stereo not drawn)
- GI50 [1]: 0.604 µM (active)
- GI50 [2]: 0.546 µM (active)
- GI50 [3]: 0.406 µM (active)
- GI50 [4]: 1.02 µM (active)
- GI50 [5]: 0.706 µM (active)
- GI50 [6]: 2.68 µM (inactive)
- GI50 [8]: 4.33 µM (inactive)
- GI50 [9]: 0.979 µM (active)
- GI50 [10]: 0.376 µM (active)
- GI50 [11]: 1.92 µM (inactive)
- GI50 [12]: 0.498 µM (active)
- GI50 [56]: 1.86 µM (inactive)
- GI50 [13]: 2.33 µM (inactive)
- GI50 [14]: 4.55 µM (inactive)
- GI50 [15]: 4.51 µM (inactive)
- GI50 [16]: 0.49 µM (active)
- GI50 [17]: 0.573 µM (active)
- GI50 [18]: 1.35 µM (inactive)
- GI50 [19]: 1.18 µM (inactive)
- GI50 [57]: 4.23 µM (inactive)
- GI50 [20]: 0.333 µM (active)
- GI50 [21]: 1.57 µM (inactive)
- GI50 [22]: 0.587 µM (active)
- GI50 [23]: 2.13 µM (inactive)
- GI50 [24]: 4.32 µM (inactive)
- GI50 [25]: 1.26 µM (inactive)
- GI50 [26]: 0.292 µM (active)
- GI50 [27]: 2.03 µM (inactive)
- GI50 [28]: 0.518 µM (active)
- GI50 [30]: 2.84 µM (inactive)
- GI50 [31]: 3.18 µM (inactive)
- GI50 [32]: 2.52 µM (inactive)
- GI50 [33]: 0.514 µM (active)
- GI50 [34]: 1.38 µM (inactive)
- GI50 [35]: 2.13 µM (inactive)
- GI50 [36]: 0.578 µM (active)
- GI50 [37]: 0.575 µM (active)
- GI50 [58]: 1.78 µM (inactive)
- GI50 [38]: 0.662 µM (active)
- GI50 [39]: 0.395 µM (active)
- GI50 [40]: 0.365 µM (active)
- GI50 [41]: 2.42 µM (inactive)
- GI50 [42]: 0.49 µM (active)
- GI50 [43]: 0.962 µM (active)
- GI50 [44]: 0.807 µM (active)
- GI50 [45]: 0.48 µM (active)
- GI50 [46]: 0.409 µM (active)
- GI50 [47]: 0.368 µM (active)
- GI50 [48]: 1.32 µM
- GI50 [49]: 1.76 µM (inactive)
- GI50 [50]: 1.25 µM (inactive)
- GI50 [51]: 0.29 µM (active)
- GI50 [52]: 0.527 µM (active)
- GI50 [53]: 0.33 µM (active)
- GI50 [54]: 1.31 µM (inactive)
- GI50 [55]: 4.5 µM (inactive)

SMILES: c1cc(C2N3CCCN2CC3)ccn1 (stereo not drawn)
- GI50 [1]: 83.6 µM (inactive)
- GI50 [2]: > 100 µM (inactive)
- GI50 [3]: > 100 µM (inactive)
- GI50 [4]: > 100 µM (inactive)
- GI50 [5]: > 100 µM (inactive)
- GI50 [6]: > 100 µM (inactive)
- GI50 [7]: > 100 µM (inactive)
- GI50 [8]: 61.1 µM (inactive)
- GI50 [9]: > 100 µM (inactive)
- GI50 [10]: > 100 µM (inactive)
- GI50 [11]: 56.2 µM (inactive)
- GI50 [12]: > 100 µM (inactive)
- GI50 [56]: 41.8 µM (inactive)
- GI50 [13]: 58.3 µM (inactive)
- GI50 [14]: > 100 µM (inactive)
- GI50 [15]: 21.9 µM (inactive)
- GI50 [16]: 25.5 µM (inactive)
- GI50 [17]: 37.8 µM (inactive)
- GI50 [18]: 86.7 µM (inactive)
- GI50 [19]: > 100 µM (inactive)
- GI50 [57]: > 100 µM (inactive)
- GI50 [20]: > 100 µM (inactive)
- GI50 [21]: > 100 µM (inactive)
- GI50 [22]: 36.9 µM (inactive)
- GI50 [23]: 53.8 µM (inactive)
- GI50 [24]: 61 µM (inactive)
- GI50 [25]: > 100 µM (inactive)
- GI50 [27]: > 100 µM (inactive)
- GI50 [28]: 49.9 µM (inactive)
- GI50 [29]: > 100 µM (inactive)
- GI50 [30]: 35.1 µM (inactive)
- GI50 [31]: > 100 µM (inactive)
- GI50 [32]: > 100 µM (inactive)
- GI50 [33]: 96.6 µM (inactive)
- GI50 [34]: 40.2 µM (inactive)
- GI50 [35]: 79.8 µM (inactive)
- GI50 [36]: > 100 µM (inactive)
- GI50 [37]: 22.8 µM (inactive)
- GI50 [58]: 57.9 µM (inactive)
- GI50 [38]: 33.4 µM (inactive)
- GI50 [39]: 48.2 µM (inactive)
- GI50 [40]: > 100 µM (inactive)
- GI50 [41]: > 100 µM (inactive)
- GI50 [42]: 4.85 µM (inactive)
- GI50 [43]: > 100 µM (inactive)
- GI50 [44]: 36.1 µM (inactive)
- GI50 [45]: > 100 µM (inactive)
- GI50 [46]: 29.4 µM (inactive)
- GI50 [47]: 28.2 µM (inactive)
- GI50 [48]: > 100 µM
- GI50 [49]: > 100 µM (inactive)
- GI50 [50]: > 100 µM (inactive)
- GI50 [51]: 68.2 µM (inactive)
- GI50 [52]: 8.38 µM (inactive)
- GI50 [53]: 24.1 µM (inactive)
- GI50 [54]: > 100 µM (inactive)
- GI50 [55]: > 100 µM (inactive)
